Results published in US8192962B2, “Processes for detecting toxic substances” (Daikin Industries, Ltd., priority 2001, dated 2012).

System: Genes belonging to other category
Test: DNA chip mRNA expression in yeast, genes belonging to other category (Table 9)
Type: cell-based, Saccharomyces cerevisiae S288C
In short: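 Measured as treated-to-untreated fluorescence ratio on a full-genome yeast DNA chip. Cells (S288C, YPD, 25° C.) were exposed in log phase for two hours to one chemical, dosed to curb growth without killing.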

[Cl][Cd][Cl] [(2), CdCl2] was tested, and the “The level of expressed mRNA in the presence of chemical substance/The level of expressed mRNA in the absence of chemical substance” value (yeast gene YKL008C) was 0.6, the “The level of expressed mRNA in the presence of chemical substance/The level of expressed mRNA in the absence of chemical substance” value (yeast gene YKL013C) was 0.9 and the “The level of expressed mRNA in the presence of chemical substance/The level of expressed mRNA in the absence of chemical substance” value (yeast gene YKL039W) was 1.1. The “The level of expressed mRNA in the presence of chemical substance/The level of expressed mRNA in the absence of chemical substance” value (yeast gene YKL096W) was 0.6, the “The level of expressed mRNA in the presence of chemical substance/The level of expressed mRNA in the absence of chemical substance” value (yeast gene YKL165C) was 2.0 and the “The level of expressed mRNA in the presence of chemical substance/The level of expressed mRNA in the absence of chemical substance” value (yeast gene YKL193C) was 0.8. The “The level of expressed mRNA in the presence of chemical substance/The level of expressed mRNA in the absence of chemical substance” value (yeast gene YLR120C) was 1.9, the “The level of expressed mRNA in the presence of chemical substance/The level of expressed mRNA in the absence of chemical substance” value (yeast gene YLR136C) was 9.0 and the “The level of expressed mRNA in the presence of chemical substance/The level of expressed mRNA in the absence of chemical substance” value (yeast gene YLR178C) was 6.9. For the same compound, the “The level of expressed mRNA in the presence of chemical substance/The level of expressed mRNA in the absence of chemical substance” value (yeast gene YLR250W) was 1.0, the “The level of expressed mRNA in the presence of chemical substance/The level of expressed mRNA in the absence of chemical substance” value (yeast gene YLR327C) was 3.3 and the “The level of expressed mRNA in the presence of chemical substance/The level of expressed mRNA in the absence of chemical substance” value (yeast gene YLR356W) was 2.9. The “The level of expressed mRNA in the presence of chemical substance/The level of expressed mRNA in the absence of chemical substance” value (yeast gene YLR362W) was 1.2, the “The level of expressed mRNA in the presence of chemical substance/The level of expressed mRNA in the absence of chemical substance” value (yeast gene YLR391W) was 0.7 and the “The level of expressed mRNA in the presence of chemical substance/The level of expressed mRNA in the absence of chemical substance” value (yeast gene YLR429W) was 1.0. For the same compound, the “The level of expressed mRNA in the presence of chemical substance/The level of expressed mRNA in the absence of chemical substance” value (yeast gene YMR004W) was 0.9, the “The level of expressed mRNA in the presence of chemical substance/The level of expressed mRNA in the absence of chemical substance” value (yeast gene YMR094W) was 0.5 and the “The level of expressed mRNA in the presence of chemical substance/The level of expressed mRNA in the absence of chemical substance” value (yeast gene YMR104C) was 14.3. The “The level of expressed mRNA in the presence of chemical substance/The level of expressed mRNA in the absence of chemical substance” value (yeast gene YMR219W) was 1.1, the “The level of expressed mRNA in the presence of chemical substance/The level of expressed mRNA in the absence of chemical substance” value (yeast gene YMR226C) was 1.8 and the “The level of expressed mRNA in the presence of chemical substance/The level of expressed mRNA in the absence of chemical substance” value (yeast gene YMR275C) was 0.7. The “The level of expressed mRNA in the presence of chemical substance/The level of expressed mRNA in the absence of chemical substance” value (yeast gene YMR276W) was 1.4, the “The level of expressed mRNA in the presence of chemical substance/The level of expressed mRNA in the absence of chemical substance” value (yeast gene YMR314W) was 1.2 and the “The level of expressed mRNA in the presence of chemical substance/The level of expressed mRNA in the absence of chemical substance” value (yeast gene YNL006W) was 2.1. For the same compound, the “The level of expressed mRNA in the presence of chemical substance/The level of expressed mRNA in the absence of chemical substance” value (yeast gene YNL007C) was 2.4, the “The level of expressed mRNA in the presence of chemical substance/The level of expressed mRNA in the absence of chemical substance” value (yeast gene YNL093W) was 6.4 and the “The level of expressed mRNA in the presence of chemical substance/The level of expressed mRNA in the absence of chemical substance” value (yeast gene YNL333W) was 1.4. The “The level of expressed mRNA in the presence of chemical substance/The level of expressed mRNA in the absence of chemical substance” value (yeast gene YNR010W) was 1.2, the “The level of expressed mRNA in the presence of chemical substance/The level of expressed mRNA in the absence of chemical substance” value (yeast gene YNR069C) was 1.3 and the “The level of expressed mRNA in the presence of chemical substance/The level of expressed mRNA in the absence of chemical substance” value (yeast gene YOL013C) was 1.0. For the same compound, the “The level of expressed mRNA in the presence of chemical substance/The level of expressed mRNA in the absence of chemical substance” value (yeast gene YOL164W) was 4.4, the “The level of expressed mRNA in the presence of chemical substance/The level of expressed mRNA in the absence of chemical substance” value (yeast gene YOR036W) was 0.9 and the “The level of expressed mRNA in the presence of chemical substance/The level of expressed mRNA in the absence of chemical substance” value (yeast gene YOR117W) was 1.3. The “The level of expressed mRNA in the presence of chemical substance/The level of expressed mRNA in the absence of chemical substance” value (yeast gene YOR124C) was 1.1, the “The level of expressed mRNA in the presence of chemical substance/The level of expressed mRNA in the absence of chemical substance” value (yeast gene YOR132W) was 1.6 and the “The level of expressed mRNA in the presence of chemical substance/The level of expressed mRNA in the absence of chemical substance” value (yeast gene YOR157C) was 1.3. For the same compound, the “The level of expressed mRNA in the presence of chemical substance/The level of expressed mRNA in the absence of chemical substance” value (yeast gene YOR181W) was 0.9, the “The level of expressed mRNA in the presence of chemical substance/The level of expressed mRNA in the absence of chemical substance” value (yeast gene YOR185C) was 1.3 and the “The level of expressed mRNA in the presence of chemical substance/The level of expressed mRNA in the absence of chemical substance” value (yeast gene YOR198C) was 0.7. The “The level of expressed mRNA in the presence of chemical substance/The level of expressed mRNA in the absence of chemical substance” value (yeast gene YOR259C) was 1.1, the “The level of expressed mRNA in the presence of chemical substance/The level of expressed mRNA in the absence of chemical substance” value (yeast gene YOR261C) was 1.4 and the “The level of expressed mRNA in the presence of chemical substance/The level of expressed mRNA in the absence of chemical substance” value (yeast gene YOR288C) was 1.3. For the same compound, the “The level of expressed mRNA in the presence of chemical substance/The level of expressed mRNA in the absence of chemical substance” value (yeast gene YOR355W) was 0.6, the “The level of expressed mRNA in the presence of chemical substance/The level of expressed mRNA in the absence of chemical substance” value (yeast gene YOR383C) was 4.3 and the “The level of expressed mRNA in the presence of chemical substance/The level of expressed mRNA in the absence of chemical substance” value (yeast gene YPL089C) was 1.0. The “The level of expressed mRNA in the presence of chemical substance/The level of expressed mRNA in the absence of chemical substance” value (yeast gene YPL109C) was 2.5, the “The level of expressed mRNA in the presence of chemical substance/The level of expressed mRNA in the absence of chemical substance” value (yeast gene YPL149W) was 1.5 and the “The level of expressed mRNA in the presence of chemical substance/The level of expressed mRNA in the absence of chemical substance” value (yeast gene YPL154C) was 3.3. The “The level of expressed mRNA in the presence of chemical substance/The level of expressed mRNA in the absence of chemical substance” value (yeast gene YPR103W) was 1.1 and the “The level of expressed mRNA in the presence of chemical substance/The level of expressed mRNA in the absence of chemical substance” value (yeast gene YPR108W) was 1.0.
